Measurements from patent US4342780A, “Method of depleting endogenous monoamines” (Merrell-Toraude et Cie, priority 1981, dated 1982).

How the values were obtained:
AADC = test: Ex vivo AADC activity in organs of mice after repeated i.p. doses (Table II); design: species or system mice (Swiss Albino); settings: three days, 12 h after 6th dose, vs control
Protocol: (§1) The test animals (e.g. mice or rats) are given the test compound in a suitable vehicle, either orally or by injection, each day over the period of time desired. The animals are kept on a constant time cycle, and body weights are measured daily. The animals are sacrificed by decapitation 12 to 24 hours after receiving the last dose of the test compound. Control animals receive the vehicle alone.
(§2) Immediately after death, the organs (brain, heart, and kidney) are removed and homogenized either in 50 ml phosphate buffer pH 6.8 for AADC determination or in ice-cold 0.4 M HClO4 containing 0.05% (w/v) EDTA and 0.1% (w/v) sodium bisulfite for catecholamine determination. AADC activity is determined by the ^14 CO2 trapping method of J. Christenson, supra (see Example 14) using DL-[1-^14 C]-dopa as the substrate. Catecholamines are determined by centrifuging the homogenate, adding the supernatant to alumina buffered to pH 8.0-8.4 to adsorb the catecholamines, re-extracting the catecholamines from the alumina with 0.2 M HClO4 and determining the catecholamines in the extracts using known procedures, such as by reversed-phase ion-pair HPLC with electrochemical detection.
(§3) Table II, shown below, sets forth the results obtained by testing particular compounds of Formula I in the above-described procedure in mice (Swiss Albino) after i.p. administration of the compound twice daily for three days: […]

[1] = test system: catecholamine levels (dopamine, noradrenaline); test: Effect of dopamine injection on catecholamine levels in heart and brain of mice treated with test compound (Table VI); format: in vivo, Male albino mice; settings: ± SEM, n = 5; for Heart Dopamine: control 20 ± 2; for Brain Noradrenaline: control 516 ± 24; for Heart Noradrenaline: control 760 ± 87; for Brain Dopamine: control 1183 ± 28
Protocol: Saline solution is used as a control. The mice are sacrificed and the catecholamines, dopamine and noradrenaline, and serotonin (5-hydroxytryptamine) are determined by reverse-phase ion-pair high pressure liquid chromatography using electrochemical detection. […] Twelve hours after the second dose, one group of animals received an i.p. injection of 50 mg/kg of dopamine-HCl (Sigma, Chem. Co), the other group received saline instead. Three hours after the dopamine injection, the animals were killed and catecholamines were measured in heart and brain as described in Example 18.

[2] = test system: catecholamine content (norepinephrine, dopamine); test: Catecholamine content in organs of mice after repeated i.p. doses (Table II); format: in vivo, mice (Swiss Albino); settings: three days, 12 h after 6th dose, vs control
Protocol: as §1, §2, §3

[3] = 2 × 100 mg/kg test compound + dopamine 50 mg/kg i.p., * marked
[4] = 2 × 100 mg/kg test compound + saline, * marked

## NC(CF)(Cc1ccc(O)c(O)c1)C(=O)O (stereo not drawn) [3,4-diOH-phenyl, 2-Amino-2-fluoromethyl-3-(3,4-dihydroxyphenyl)propionic acid]
AADC; 10 mg/kg i.p. twice daily
  % CHANGE AADC Brain: -86%
  % CHANGE AADC Kidney: -95%
AADC; 100 mg/kg i.p. twice daily
  % CHANGE AADC Brain: -99%
  % CHANGE AADC Kidney: -99%
[1]; [3]
  Heart Dopamine: 429 ± 39 ng/g
  Brain Noradrenaline: 42 ± 4 ng/g
  Brain Dopamine: 92 ± 8 ng/g
[1]; 2 × 100 mg/kg test compound + dopamine 50 mg/kg i.p.
  Heart Noradrenaline: 882 ± 47 ng/g
[1]; 2 × 100 mg/kg test compound + saline
  Heart Dopamine: 98 ± 62 ng/g
[1]; [4]
  Brain Noradrenaline: 44 ± 6 ng/g
  Heart Noradrenaline: 173 ± 24 ng/g
  Brain Dopamine: 47 ± 5 ng/g
[2]; 10 mg/kg i.p. twice daily, * not significant
  % CHANGE NOREPINEPHRINE Brain: -55%
[2]; 10 mg/kg i.p. twice daily, * not significant (-25*, -7*)
  % CHANGE NOREPINEPHRINE Heart: -39%
[2]; 10 mg/kg i.p. twice daily, * not significant (-25*, -9*)
  % CHANGE DOPAMINE Brain: 0%
[2]; 100 mg/kg i.p. twice daily
  % CHANGE NOREPINEPHRINE Brain: -80%
  % CHANGE NOREPINEPHRINE Heart: -80%
[2]; 100 mg/kg i.p. twice daily, * not significant (-35*)
  % CHANGE DOPAMINE Brain: -80%
